# Experiments:
# [1] = design: method as in Walle et al. [2023]; settings: authentic fatal case, comparable survival time after drug intake; ref Walle et al. [2023]; cited from earlier work
# P-glycoprotein = system: P-glycoprotein; design: method as in unpublished data of the authors; settings: ref unpublished data of the authors; cited from earlier work
# [2] = Perimortem and postmortem concentrations in tissues and body fluids after pulmonary administration of 5F-MDMB-P7AICA to pigs (LC-MS/MS); format: in vivo; settings: pig
# Experimental: The experiments were conducted in compliance with the German legislation on protection of animals and the National Institutes of Health Guide for the Care and Use of Laboratory Animals (permission number 32/2018). Six domestic male pigs (Swabian Hall strain; body weight [BW] 40–51.2 kg, 3 months old) were kept with free access to water and standard daily food (OlymPig fattening feed, Raiffeisen, Münster, Germany). One night prior to the experiments, the animals were kept fasting. […] The room temperature was 22 ± 1 °C with a humidity of 55 ± 10%.
# As previously described (Doerr et al. [2020]; Schaefer et al. [2019], [2020a]), an ethanolic solution of 5 mg/mL 5F-MDMB-P7AICA was prepared. An aliquot of 1.600–2.048 mL was filled up with ethanol to a total volume of 2 mL, if needed to achieve a concentration of 200 µg per kg BW. The SC was administered inhalatively over 6.5–8 min, using a M-Neb flow + ventilation ultrasonic nebulizer MN-300/7 (Nebutec, Elsenfeld, Germany) in the inspiration-triggered mode.
# Animal euthanasia was conducted eight hours after the drug administration using T 61 (embutramide, 0.12 mL/kg BW, Intervet Deutschland GmbH, Unterschleißheim, Germany). Afterwards, the abdominal cavity was opened. Samples of the following organs, tissues and body fluids were collected (PMI 0) and stored at − 20 °C until further analysis: Brain (cerebrum), lungs and liver with no differentiation between the lobes, kidneys, muscle tissue (from the hindleg), adipose tissue (subcutaneous (sc), dorsal, perirenal), bile fluid, duodenum content, urine (only at PMI 0) and PB (V. jugularis) as well as CB.
# The abdominal cavity was sutured leaving the organs in situ and the animal bodies were kept at room temperature in a supine position. Analogously, samples were taken again after 24, 48 and 72 h (PMI 1–3), respectively. Yet, PM PB specimens were obtained by sampling the coagulated blood from the V. femoralis or V. brachialis. For this purpose, the whole vessel was sampled and the blood was drawn therefrom using a pipette with a wide lumen.
# Specimens were prepared according to a previous published method (Schaefer et al. [2017], [2019], [2020a]) with changes regarding the applied buffers and the amount of acetonitrile. An amount of 2 g of solid tissue (brain, lung, liver, kidney and muscle tissue) was homogenized (1:5 w/w with water), respectively and 1 g of body fluids (bile fluid, duodenum content, and urine) was diluted (1:10 w/w for bile and duodenum content, 1:5 w/w for urine, respectively, with water). The samples were stored at − 20 °C.
# To determine the standard addition calibration curves, four 0.5 g aliquots were added to 20 µL of an ethanolic stable-isotope-labeled internal standard solution (SIL-IS, 1 ng/20 µL AB-FUBINACA-d4) and 25 µL of ethanol or an ethanolic solution of the analytes.
# Subsequently, the solution was mixed with 500 µL of acetate buffer and 50 µL of β-glucuronidase/arylsulfatase and incubated for 2 h at 60 °C to induce enzymatic hydrolysis of the glucuronidated DBA (phase-II metabolite).
# For the following protein precipitation, the samples were mixed with 500 µL of acetonitrile and centrifuged at 3500g for 8 min. The supernatants were transferred to 1 mL phosphate buffer (pH 9) vortexed and centrifuged at 3500g for 8 min again.
# Solid phase extraction (SPE) was carried out using Strata C18 end capped cartridges (Phenomenex, Aschaffenburg, Germany), previously conditioned with 2 × 3 mL methanol and 3 mL phosphate buffer. After loading the samples, the columns were washed with 3 mL phosphate buffer, 3 mL acetic acid (0.25 M) and 3 mL deionized water, respectively. 60 μL acetone was added and columns were dried for 5 min using negative pressure (about 33 kPa). Thereafter, the analytes were eluted with a mixture of 1.5 mL methanol-acetone (1:1, v/v) and the eluate was evaporated under a gentle stream of nitrogen at 60 °C. […]
# [3] = 200 µg/kg BW inhalative, PMI 0 (8 h after administration)
# [4] = 200 µg/kg BW inhalative, PMI 1 (24 h after euthanasia, room temperature)
# [5] = 200 µg/kg BW inhalative, PMI 2 (48 h after euthanasia, room temperature)
# [6] = 200 µg/kg BW inhalative, PMI 3 (72 h after euthanasia, room temperature)
smiles,measurement,setting,value
"COC(=O)C(NC(=O)c1cn(CCCCCF)c2ncccc12)C(C)(C)C (stereo not shown) [5F-MDMB-P7AICA, methyl[2-[1-(5-fluoropentyl)-1H-pyrrolo[2,3-b]pyridin-3-yl]formamido]-3,3-dimethylbutanoate]",CB concentration in fatal case,[1],0.69 ng/mL
same,PB concentration in fatal case,[1],1.2 ng/mL
same,substrate of the P-glycoprotein,P-glycoprotein,is a substrate of the P-glycoprotein
same,Mean concentration ± SD in CB (central blood),[2]; [3],0.21 ± 0.10 n = 6 ng/mL
same,Mean concentration ± SD in bile fluid,[2]; [3],11 ± 9.9 n = 6 ng/g
same,Mean concentration ± SD in brain,[2]; [3],0.33 ± 0.15 n = 6 ng/g
same,Mean concentration ± SD in dorsal fat,[2]; [3],30 ± 16 n = 6 ng/g
same,Mean concentration ± SD in duodenum content,[2]; [3],2.7 ± 3.1 n = 6 ng/g
same,Mean concentration ± SD in kidney,[2]; [3],No parent compound could be found and neg
same,Mean concentration ± SD in liver,[2]; [3],0.16 ± 0.043 n = 3 ng/g
same,Mean concentration ± SD in lung,[2]; [3],0.41 ± 0.26 n = 6 ng/g
same,Mean concentration ± SD in muscle,[2]; [3],0.62 ± 0.10 n = 6 ng/g
same,Mean concentration ± SD in perirenal fat,[2]; [3],33 ± 31 n = 6 ng/g
same,Mean concentration ± SD in s.c. fat,[2]; [3],51 ± 30 n = 6 ng/g
same,Mean concentration ± SD in urine,[2]; [3],No parent compound could be found and neg
same,Mean concentration ± SD in CB (central blood),[2]; [4],0.25 ± 0.10 n = 5 ng/mL
same,Mean concentration ± SD in PB (peripheral blood),[2]; [4],0.67 ± 0.37 n = 6 ng/mL
same,Mean concentration ± SD in bile fluid,[2]; [4],3.5 ± 3.1 n = 6 ng/g
same,Mean concentration ± SD in brain,[2]; [4],0.23 ± 0.10 n = 6 ng/g
same,Mean concentration ± SD in dorsal fat,[2]; [4],35 ± 26 n = 6 ng/g
same,Mean concentration ± SD in duodenum content,[2]; [4],0.44 ± 0.22 n = 6 ng/g
same,Mean concentration ± SD in kidney,[2]; [4],0.090–0.10 n = 2 ng/g
same,Mean concentration ± SD in liver,[2]; [4],0.21–0.29 n = 2 ng/g
same,Mean concentration ± SD in lung,[2]; [4],0.50 ± 0.085 n = 3 ng/g
same,Mean concentration ± SD in muscle,[2]; [4],0.77 ± 0.28 n = 6 ng/g
same,Mean concentration ± SD in perirenal fat,[2]; [4],30 ± 20 n = 6 ng/g
same,Mean concentration ± SD in s.c. fat,[2]; [4],53 ± 43 n = 6 ng/g
same,Mean concentration ± SD in CB (central blood),[2]; [5],0.20 ± 0.090 n = 5 ng/mL
same,Mean concentration ± SD in PB (peripheral blood),[2]; [5],0.58 ± 0.35 n = 6 ng/mL
same,Mean concentration ± SD in brain,[2]; [5],0.10 ± 0.065 n = 6 ng/g
same,Mean concentration ± SD in dorsal fat,[2]; [5],25 ± 15 n = 6 ng/g
same,Mean concentration ± SD in duodenum content,[2]; [5],0.59 ± 0.48 n = 5 ng/g
same,Mean concentration ± SD in kidney,[2]; [5],0.17 ± 0.16 n = 5 ng/g
same,Mean concentration ± SD in liver,[2]; [5],1.1 ± 2.0 n = 6 ng/g
same,Mean concentration ± SD in lung,[2]; [5],0.65 ± 0.37 n = 5 ng/g
same,Mean concentration ± SD in muscle,[2]; [5],1.0 ± 0.67 n = 6 ng/g
same,Mean concentration ± SD in perirenal fat,[2]; [5],32 ± 35 n = 6 ng/g
same,Mean concentration ± SD in s.c. fat,[2]; [5],40 ± 28 n = 6 ng/g
same,Mean concentration ± SD in CB (central blood),[2]; [6],0.24 ± 0.11 n = 5 ng/mL
same,Mean concentration ± SD in PB (peripheral blood),[2]; [6],0.43 ± 0.16 n = 6 ng/mL
same,Mean concentration ± SD in brain,[2]; [6],0.16 ± 0.16 n = 4 ng/g
same,Mean concentration ± SD in dorsal fat,[2]; [6],33 ± 27 n = 6 ng/g
same,Mean concentration ± SD in duodenum content,[2]; [6],0.89 ± 0.71 n = 6 ng/g
same,Mean concentration ± SD in kidney,[2]; [6],0.23 ± 0.088 n = 5 ng/g
same,Mean concentration ± SD in liver,[2]; [6],0.44 ± 0.18 n = 5 ng/g
same,Mean concentration ± SD in lung,[2]; [6],0.71 ± 0.54 n = 5 ng/g
same,Mean concentration ± SD in muscle,[2]; [6],2.3 ± 2.1 n = 6 ng/g
same,Mean concentration ± SD in perirenal fat,[2]; [6],22 ± 19 n = 6 ng/g
same,Mean concentration ± SD in s.c. fat,[2]; [6],35 ± 26 n = 6 ng/g
same,Concentration in bile fluid,"[2]; 200 µg/kg BW inhalative, PMI 3 (72 h after euthanasia, room temperature), only sampled from 2 pigs",3.6–7.4 n = 2^2 ng/g
same,Mean concentration ± SD in PB (peripheral blood),"[2]; 5F-MDMB-P7AICA 200 µg/kg BW inhalative, PMI 0 (8 h after administration)",0.57 ± 0.19 n = 6 ng/mL
same,Postmortem redistribution (PMR),[2]; 3 days storage at room temperature,no relevant PMR was observed
same,central-to-peripheral blood (C/P) concentration ratio,[2]; PMI 0,lower than 1
same,liver-to-peripheral blood (L/P) ratio,[2]; PMI 0,< 5
same,C/P concentration ratio,[2]; PMI 1–3,< 1
same,L/P concentration ratio,[2]; PMI 1–3,< 5
same,Concentration change in liver specimens,"[2]; PMI 2 and 3 versus PMI 0, p < 0.05",significant higher
same,Concentration change in muscle tissue,"[2]; from PMI 0 to PMI 3, p < 0.05",significantly increased

# Reference: article PMC11402846, “Does a postmortem redistribution affect the concentrations of the 7 azaindole-derived synthetic cannabinoid 5F-MDMB-P7AICA in tissues and body fluids following pulmonary administration to pigs?” (Archives of Toxicology, 2024)
